Earlier results on three compounds are cited in patent US20240139123A1, “COMPOSITIONS AND METHODS FOR IMPROVING BRAIN FUNCTION” (Health Via Modern Nutrition Inc., priority 2021, published 2024).

Each structure is given as a SMILES string.

For data set [1] the following is noted: rats, diet supplemented as 30% of calories.
The conditions of data set [2]: animal models.
The test system of data set [3] is NF-κB activation. As to conditions: in vitro.
For data set [4] the following is noted: animal and in vitro studies.
The conditions of data set [5]: Schizophrenia-like rat model.
For data set [6] the following is noted: patient with Alzheimer's disease dementia, 20-month oral administration.

Turning to `C[C@@H](O)CCOC(=O)C[C@@H](C)O` [(R)-3-hydroxyburyl (R)-3-hydroxybutyrate], the “cognitive and physical performance” value in data set [1] is “improved cognitive and physical performance”.
For `C=C(C)[C@@H]1CCC(C)=C[C@H]1c1c(O)cc(CCCCC)cc1O` [CBD, cannabidiol], the “anti-anxiety and antidepressant effects” value in data set [2] was “exhibited an anti-anxiety and antidepressant effects”. In data set [3], the NF-κB activation result was “inhibits” and the “reactive oxygen species (ROS) production by mitochondria” value is on record as “inhibits”. Besides, in data set [4], the anti-inflammatory properties entry is given as “strong anti-inflammatory properties”. In addition, the “cognitive impairment and cortical transcriptional changes” value in data set [5] was “improve cognitive impairment and reverse cortical transcriptional changes”.
Turning to `C[C@@H](O)CCOC(=O)C[C@@H](C)O` [ketone monoester], in data set [6], the “mood, affect, self-care, cognitive and daily activity performance” value is “improved markedly in mood, affect, self-care, and cognitive and daily activity performance”.
